± gives the expanded uncertainty stated by the source.
Assay: molar heat capacity at constant pressure
Details: 101.33 kPa, Crystal

OC[C@H](O)C(O)[C@@H](O)CO [L-(-)-arabitol]
Details | molar heat capacity at constant pressure [J/K/mol]
1 K, relaxation calorimetry | 0.0009071 ± 0.00011
1.925 K, relaxation calorimetry | 0.00486 ± 0.0004
2 K, relaxation calorimetry | 0.00537 ± 0.00037
2.126 K, relaxation calorimetry | 0.006333 ± 0.00052
2.35 K, relaxation calorimetry | 0.008531 ± 0.00065
2.603 K, relaxation calorimetry | 0.01139 ± 0.00085
2.89 K, relaxation calorimetry | 0.01551 ± 0.0011
3 K, relaxation calorimetry | 0.01737 ± 0.0011
3.204 K, relaxation calorimetry | 0.02118 ± 0.0015
3.551 K, relaxation calorimetry | 0.02864 ± 0.0021
3.938 K, relaxation calorimetry | 0.03916 ± 0.0028
4 K, relaxation calorimetry | 0.04172 ± 0.0026
4.366 K, relaxation calorimetry | 0.05484 ± 0.0039
4.845 K, relaxation calorimetry | 0.07705 ± 0.0055
5 K, relaxation calorimetry | 0.08452 ± 0.0053
5.374 K, relaxation calorimetry | 0.1069 ± 0.0076
5.962 K, relaxation calorimetry | 0.1505 ± 0.011
6 K, relaxation calorimetry | 0.1535 ± 0.0096
6.615 K, relaxation calorimetry | 0.2138 ± 0.015
7 K, relaxation calorimetry | 0.26 ± 0.016
7.345 K, relaxation calorimetry | 0.3087 ± 0.022
8 K, relaxation calorimetry | 0.4176 ± 0.026
8.151 K, relaxation calorimetry | 0.4472 ± 0.031
9 K, relaxation calorimetry | 0.6348 ± 0.039
9.046 K, relaxation calorimetry | 0.6445 ± 0.045
10 K, relaxation calorimetry | 0.9169 ± 0.056
10.12 K, relaxation calorimetry | 0.9515 ± 0.067
11.21 K, relaxation calorimetry | 1.346 ± 0.094
12.43 K, relaxation calorimetry | 1.885 ± 0.13
13.79 K, relaxation calorimetry | 2.589 ± 0.18
15 K, relaxation calorimetry | 3.316 ± 0.2
15.3 K, relaxation calorimetry | 3.507 ± 0.24
16.99 K, relaxation calorimetry | 4.683 ± 0.33
18.86 K, relaxation calorimetry | 6.145 ± 0.43
20 K, relaxation calorimetry | 7.063 ± 0.43
21 K, relaxation calorimetry | 7.93 ± 0.32
23.34 K, relaxation calorimetry | 10 ± 0.41
25 K, relaxation calorimetry | 11.59 ± 0.71
25.89 K, relaxation calorimetry | 12.41 ± 0.51
28.74 K, relaxation calorimetry | 15.2 ± 0.62
30 K, relaxation calorimetry | 16.48 ± 1
31.91 K, relaxation calorimetry | 18.4 ± 0.75
35 K, relaxation calorimetry | 21.5 ± 1.3
35.44 K, relaxation calorimetry | 21.96 ± 0.89
39.34 K, relaxation calorimetry | 25.96 ± 1.1
40 K, relaxation calorimetry | 26.56 ± 1.6
43.67 K, relaxation calorimetry | 30.28 ± 1.2
45 K, relaxation calorimetry | 31.57 ± 1.9
48.47 K, relaxation calorimetry | 34.84 ± 1.4
50 K, relaxation calorimetry | 36.42 ± 2.2
53.79 K, relaxation calorimetry | 39.93 ± 1.6
55 K, relaxation calorimetry | 41.06 ± 2.5
59.71 K, relaxation calorimetry | 45.44 ± 1.8
60 K, relaxation calorimetry | 45.6 ± 2.8
65 K, relaxation calorimetry | 50.22 ± 3.1
66.3 K, relaxation calorimetry | 51.38 ± 2.1
70 K, relaxation calorimetry | 54.55 ± 3.3
73.59 K, relaxation calorimetry | 57.52 ± 2.3
75 K, relaxation calorimetry | 58.73 ± 3.6
80 K, relaxation calorimetry | 62.81 ± 3.8
81.71 K, relaxation calorimetry | 64.34 ± 2.6
85 K, relaxation calorimetry | 66.8 ± 4.1
90 K, relaxation calorimetry | 70.7 ± 4.3
90.67 K, relaxation calorimetry | 71.56 ± 2.9
95 K, relaxation calorimetry | 74.53 ± 4.6
100 K, relaxation calorimetry | 78.28 ± 4.8
100.62 K, relaxation calorimetry | 78.32 ± 3.2
110 K, relaxation calorimetry | 85.55 ± 5.2
110.77 K, relaxation calorimetry | 85.86 ± 3.5
120 K, relaxation calorimetry | 92.52 ± 5.7
120.75 K, relaxation calorimetry | 93.29 ± 3.8
130 K, relaxation calorimetry | 99.22 ± 6.1
130.83 K, relaxation calorimetry | 99.89 ± 4.1
140 K, relaxation calorimetry | 105.69 ± 6.5
141 K, relaxation calorimetry | 106.35 ± 4.3
150 K, relaxation calorimetry | 111.98 ± 6.9
151.08 K, relaxation calorimetry | 112.59 ± 4.6
160 K, relaxation calorimetry | 118.13 ± 7.2
161.19 K, relaxation calorimetry | 118.71 ± 4.8
170 K, relaxation calorimetry | 124.19 ± 7.6
171.26 K, relaxation calorimetry | 124.81 ± 5.1
180 K, relaxation calorimetry | 130.18 ± 8
181.32 K, relaxation calorimetry | 131.15 ± 5.3
188.15 K, Small sample (50 mg) DSC | 129.04 ± 26
189.15 K, Small sample (50 mg) DSC | 130.57 ± 26
190 K, relaxation calorimetry | 136.16 ± 8.3
190.15 K, Small sample (50 mg) DSC | 131.98 ± 26
191.15 K, Small sample (50 mg) DSC | 132.97 ± 27
191.4 K, relaxation calorimetry | 137.23 ± 5.6
192.15 K, Small sample (50 mg) DSC | 133.65 ± 27
193.15 K, Small sample (50 mg) DSC | 134.27 ± 27
194.15 K, Small sample (50 mg) DSC | 135.12 ± 27
195.15 K, Small sample (50 mg) DSC | 135.91 ± 27
196.15 K, Small sample (50 mg) DSC | 136.66 ± 27
197.15 K, Small sample (50 mg) DSC | 137.42 ± 28
198.15 K, Small sample (50 mg) DSC | 138.16 ± 28
199.15 K, Small sample (50 mg) DSC | 138.8 ± 28
200 K, relaxation calorimetry | 142.15 ± 8.7
200.15 K, Small sample (50 mg) DSC | 139.49 ± 28
201.15 K, Small sample (50 mg) DSC | 140.3 ± 28
201.57 K, relaxation calorimetry | 142.67 ± 5.8
202.15 K, Small sample (50 mg) DSC | 141.06 ± 28
203.15 K, Small sample (50 mg) DSC | 141.64 ± 28
204.15 K, Small sample (50 mg) DSC | 142.39 ± 29
205.15 K, Small sample (50 mg) DSC | 143.02 ± 29
206.15 K, Small sample (50 mg) DSC | 143.74 ± 29
207.15 K, Small sample (50 mg) DSC | 144.43 ± 29
208.15 K, Small sample (50 mg) DSC | 145.06 ± 29
209.15 K, Small sample (50 mg) DSC | 145.72 ± 29
210 K, relaxation calorimetry | 148.19 ± 9.1
210.15 K, Small sample (50 mg) DSC | 146.38 ± 29
211.15 K, Small sample (50 mg) DSC | 147.05 ± 29
211.68 K, relaxation calorimetry | 149.03 ± 6
212.15 K, Small sample (50 mg) DSC | 147.72 ± 30
213.15 K, Small sample (50 mg) DSC | 148.33 ± 30
214.15 K, Small sample (50 mg) DSC | 149.06 ± 30
215.15 K, Small sample (50 mg) DSC | 149.6 ± 30
216.15 K, Small sample (50 mg) DSC | 150.38 ± 30
217.15 K, Small sample (50 mg) DSC | 151.13 ± 30
218.15 K, Small sample (50 mg) DSC | 152.05 ± 30
219.15 K, Small sample (50 mg) DSC | 152.76 ± 31
220 K, relaxation calorimetry | 154.3 ± 9.4
220.15 K, Small sample (50 mg) DSC | 153.39 ± 31
221.15 K, Small sample (50 mg) DSC | 153.99 ± 31
221.77 K, relaxation calorimetry | 155.91 ± 6.3
222.15 K, Small sample (50 mg) DSC | 154.72 ± 31
223.15 K, Small sample (50 mg) DSC | 155.35 ± 31
224.15 K, Small sample (50 mg) DSC | 155.94 ± 31
225.15 K, Small sample (50 mg) DSC | 156.64 ± 31
226.15 K, Small sample (50 mg) DSC | 157.32 ± 32
227.15 K, Small sample (50 mg) DSC | 157.87 ± 32
228.15 K, Small sample (50 mg) DSC | 158.58 ± 32
229.15 K, Small sample (50 mg) DSC | 159.08 ± 32
230 K, relaxation calorimetry | 160.49 ± 9.8
230.15 K, Small sample (50 mg) DSC | 159.71 ± 32
231.15 K, Small sample (50 mg) DSC | 160.4 ± 32
231.87 K, relaxation calorimetry | 161.72 ± 9.9
232.15 K, Small sample (50 mg) DSC | 160.98 ± 32
233.15 K, Small sample (50 mg) DSC | 161.67 ± 32
234.15 K, Small sample (50 mg) DSC | 162.2 ± 33
235.15 K, Small sample (50 mg) DSC | 162.87 ± 33
236.15 K, Small sample (50 mg) DSC | 163.51 ± 33
237.15 K, Small sample (50 mg) DSC | 164.14 ± 33
238.15 K, Small sample (50 mg) DSC | 164.86 ± 33
239.15 K, Small sample (50 mg) DSC | 165.4 ± 33
240 K, relaxation calorimetry | 166.8 ± 10
240.15 K, Small sample (50 mg) DSC | 166.04 ± 33
241.15 K, Small sample (50 mg) DSC | 166.73 ± 33
241.87 K, relaxation calorimetry | 168.05 ± 10
242.15 K, Small sample (50 mg) DSC | 167.44 ± 34
243.15 K, Small sample (50 mg) DSC | 168.16 ± 34
